{"source": "paper PMC5218480", "about": "(PLoS ONE, 2017)", "tested_on": "MV-4-11 cells", "assay": "Gene expression microarray analysis (Affymetrix PrimeView) and GSEA", "assay_type": "cell-based, human", "design": "RFU PODN (11730768_x_at) / Fold change /veh PODN (11730768_x_at) / RFU LINC00158 (11744669_a_at) / Fold change /veh LINC00158 (11744669_a_at) / RFU DUSP10 (11751237_a_at) / Fold change /veh DUSP10 (11751237_a_at) / RFU ID3 (11757404_x_at) / Fold change /veh ID3 (11757404_x_at) / RFU PLEKHG5 (11737974_s_at) / Fold change /veh PLEKHG5 (11737974_s_at) / RFU LRRC4B (11730491_at) / Fold change /veh LRRC4B (11730491_at) / RFU GIMAP4 (11747438_a_at) / Fold change /veh GIMAP4 (11747438_a_at) / RFU KRT8 (11758183_x_at) / Fold change /veh KRT8 (11758183_x_at) / RFU CNN1 (11734310_a_at) / Fold change /veh CNN1 (11734310_a_at) / RFU VPS37D (11726825_at) / Fold change /veh VPS37D (11726825_at) / RFU C10orf10 (11716522_x_at) / Fold change /veh C10orf10 (11716522_x_at) / RFU KIR2DL2 /// KIR2DL4 /// KIR2DL5A /// KIR2DL5B /// KIR2DS1 /// KIR2DS2 /// KIR2DS3 /// KIR2DS4 /// KIR3DL3 /// KIR3DL3 /// KIR3DS1 (11738374_at) / Fold change /veh KIR2DL2 /// KIR2DL4 /// KIR2DL5A /// KIR2DL5B /// KIR2DS1 /// KIR2DS2 /// KIR2DS3 /// KIR2DS4 /// KIR3DL3 /// KIR3DL3 /// KIR3DS1 (11738374_at) / RFU C1QL1 (11718748_at) / Fold change /veh C1QL1 (11718748_at) / RFU TMPRSS4 (11747572_a_at) / Fold change /veh TMPRSS4 (11747572_a_at) / RFU HAMP (11756126_x_at) / Fold change /veh HAMP (11756126_x_at) / RFU RNFT2 (11725882_a_at) / Fold change /veh RNFT2 (11725882_a_at) / RFU NR4A2 (11747474_a_at) / Fold change /veh NR4A2 (11747474_a_at) / RFU ABCC12 (11746883_a_at) / Fold change /veh ABCC12 (11746883_a_at) / RFU TMEM136 (11760407_x_at) / Fold change /veh TMEM136 (11760407_x_at) / RFU CLDN22 /// WWC2 (11732394_at) / Fold change /veh CLDN22 /// WWC2 (11732394_at) / RFU HLA-DPB1 (11760878_x_at) / Fold change /veh HLA-DPB1 (11760878_x_at) / RFU SPINT1 (11716480_a_at) / Fold change /veh SPINT1 (11716480_a_at) / RFU GAP43 (11754022_s_at) / Fold change /veh GAP43 (11754022_s_at) / RFU A4GNT (11735810_at) / Fold change /veh A4GNT (11735810_at) / RFU PRB3 (11715151_x_at) / Fold change /veh PRB3 (11715151_x_at) / RFU TUBB4B (11761932_at) / Fold change /veh TUBB4B (11761932_at) / RFU CAPN14 (11732068_a_at) / Fold change /veh CAPN14 (11732068_a_at) / RFU TMCC2 (11721928_a_at) / Fold change /veh TMCC2 (11721928_a_at) / RFU IRGQ (11745062_a_at) / Fold change /veh IRGQ (11745062_a_at) / RFU FAM174B (11720279_a_at) / Fold change /veh FAM174B (11720279_a_at) / RFU TMPRSS4 (11748680_a_at) / Fold change /veh TMPRSS4 (11748680_a_at) / RFU FAM212B (11763350_a_at) / Fold change /veh FAM212B (11763350_a_at) / RFU PLEKHG5 (11743358_a_at) / Fold change /veh PLEKHG5 (11743358_a_at) / RFU ZSCAN30 (11745921_a_at) / Fold change /veh ZSCAN30 (11745921_a_at) / RFU CMKLR1 (11741424_a_at) / Fold change /veh CMKLR1 (11741424_a_at) / RFU LOC101060620 /// MAPK8IP1 (11723275_at) / Fold change /veh LOC101060620 /// MAPK8IP1 (11723275_at) / RFU SPTSSB (11747773_x_at) / Fold change /veh SPTSSB (11747773_x_at) / RFU PRSS12 (11739890_at) / Fold change /veh PRSS12 (11739890_at) / RFU BIN1 (11741810_x_at) / Fold change /veh BIN1 (11741810_x_at) / RFU WNT11 (11732464_a_at) / Fold change /veh WNT11 (11732464_a_at) / RFU C10orf10 (11716521_a_at) / Fold change /veh C10orf10 (11716521_a_at) / RFU C5orf56 (11738089_at) / Fold change /veh C5orf56 (11738089_at) / RFU CYB561 (11721691_x_at) / Fold change /veh CYB561 (11721691_x_at) / RFU ANKRD19P (11752326_a_at) / Fold change /veh ANKRD19P (11752326_a_at) / RFU OR2T12 /// OR2T33 /// OR2T8 (11738714_s_at) / Fold change /veh OR2T12 /// OR2T33 /// OR2T8 (11738714_s_at) / RFU VCAN (11748164_a_at) / Fold change /veh VCAN (11748164_a_at) / RFU JSRP1 (11732532_at) / Fold change /veh JSRP1 (11732532_at) / RFU KRTAP10-11 (11738290_x_at) / Fold change /veh KRTAP10-11 (11738290_x_at) / RFU MYO3A (11730013_a_at) / Fold change /veh MYO3A (11730013_a_at) / RFU EBF3 (11725865_a_at) / Fold change /veh EBF3 (11725865_a_at) / RFU CAMK2N1 (11719241_x_at) / Fold change /veh CAMK2N1 (11719241_x_at) / RFU C5orf56 (11738088_a_at) / Fold change /veh C5orf56 (11738088_a_at) / RFU OLFML3 (11715873_a_at) / Fold change /veh OLFML3 (11715873_a_at) / RFU LOC100653217 /// NTM (11731650_a_at) / Fold change /veh LOC100653217 /// NTM (11731650_a_at) / RFU MAPK11 (11762145_a_at) / Fold change /veh MAPK11 (11762145_a_at) / RFU FIZ1 (11724087_x_at) / Fold change /veh FIZ1 (11724087_x_at) / RFU OASL (11726364_x_at) / Fold change /veh OASL (11726364_x_at) / RFU SOX15 (11748057_x_at) / Fold change /veh SOX15 (11748057_x_at) / RFU CD79A (11719716_a_at) / Fold change /veh CD79A (11719716_a_at) / RFU HIST1H1D (11736915_at) / Fold change /veh HIST1H1D (11736915_at) / RFU CASKIN2 (11723855_a_at) / Fold change /veh CASKIN2 (11723855_a_at) / RFU LOC730098 (11760151_x_at) / Fold change /veh LOC730098 (11760151_x_at) / RFU OR4N2 (11742367_at) / Fold change /veh OR4N2 (11742367_at) / RFU PRRT2 (11749266_a_at) / Fold change /veh PRRT2 (11749266_a_at) / RFU SNX32 (11753110_a_at) / Fold change /veh SNX32 (11753110_a_at) / RFU CDHR5 (11726645_a_at) / Fold change /veh CDHR5 (11726645_a_at) / RFU RCAN1 (11760418_a_at) / Fold change /veh RCAN1 (11760418_a_at) / RFU FAM167A (11723789_a_at) / Fold change /veh FAM167A (11723789_a_at) / RFU FAM26E (11764081_at) / Fold change /veh FAM26E (11764081_at) / RFU ISYNA1 (11749810_s_at) / Fold change /veh ISYNA1 (11749810_s_at) / RFU ACY1 (11761880_at) / Fold change /veh ACY1 (11761880_at) / RFU 11764098_at / Fold change /veh 11764098_at / RFU SAMD14 (11745864_x_at) / Fold change /veh SAMD14 (11745864_x_at) / RFU NPB (11741838_a_at) / Fold change /veh NPB (11741838_a_at) / RFU TMPRSS6 (11731388_a_at) / Fold change /veh TMPRSS6 (11731388_a_at) / RFU KRTAP10-2 (11738614_at) / Fold change /veh KRTAP10-2 (11738614_at) / RFU ARHGAP8 /// PRR5-ARHGAP8 (11727945_x_at) / Fold change /veh ARHGAP8 /// PRR5-ARHGAP8 (11727945_x_at) / RFU KRTAP5-7 /// NADSYN1 (11734609_at) / Fold change /veh KRTAP5-7 /// NADSYN1 (11734609_at) / RFU RASL12 (11751679_a_at) / Fold change /veh RASL12 (11751679_a_at) / RFU CDKN2B (11736163_a_at) / Fold change /veh CDKN2B (11736163_a_at) / RFU PRF1 (11729649_at) / Fold change /veh PRF1 (11729649_at) / RFU, ZNF638 /// ZNF638-IT1 / Fold change vs veh, ZNF638 /// ZNF638-IT1 / RFU, PANK3 / Fold change vs veh, PANK3 / RFU, SH3YL1 / Fold change vs veh, SH3YL1 / RFU, ZEB2 / Fold change vs veh, ZEB2 / RFU, NRIP1 / Fold change vs veh, NRIP1 / RFU, PTTG1IP / Fold change vs veh, PTTG1IP / RFU, CAPN2 / Fold change vs veh, CAPN2 / RFU, MED14 / Fold change vs veh, MED14 / RFU, SNORA58 / Fold change vs veh, SNORA58 / RFU, C1orf63 / Fold change vs veh, C1orf63 / RFU, LRRFIP1 / Fold change vs veh, LRRFIP1 / RFU, NDUFAF7 / Fold change vs veh, NDUFAF7 / RFU, SLC12A2 / Fold change vs veh, SLC12A2 / RFU, IBTK / Fold change vs veh, IBTK / RFU, ESF1 / Fold change vs veh, ESF1 / Fold change vs veh, TMEM50B / RFU, TAOK1 / Fold change vs veh, TAOK1 / RFU, ACBD3 / Fold change vs veh, ACBD3 / RFU, TMA16 / Fold change vs veh, TMA16 / RFU, RWDD3 / Fold change vs veh, RWDD3 / RFU, BCAT1 / Fold change vs veh, BCAT1 / RFU, EDEM3 / Fold change vs veh, EDEM3 / RFU, TMEM33 / Fold change vs veh, TMEM33 / RFU, WDR75 / Fold change vs veh, WDR75 / RFU, AHCTF1 / Fold change vs veh, AHCTF1 / RFU, TFRC / Fold change vs veh, TFRC / RFU, ZDHHC17 / Fold change vs veh, ZDHHC17 / RFU, NOM1 / Fold change vs veh, NOM1 / RFU, ARL8B / Fold change vs veh, ARL8B / RFU, ZBTB11 / Fold change vs veh, ZBTB11 / RFU, TAMM41 / Fold change vs veh, TAMM41 / RFU, KIAA1704 /// LOC100996395 / Fold change vs veh, KIAA1704 /// LOC100996395 / RFU, ING1 / Fold change vs veh, ING1 / RFU, TRMT61B / Fold change vs veh, TRMT61B / RFU, FUBP3 / Fold change vs veh, FUBP3 / RFU, TP53 / Fold change vs veh, TP53 / RFU, TNKS2 / Fold change vs veh, TNKS2 / RFU, ZFP14 / Fold change vs veh, ZFP14 / RFU, ACTR2 / Fold change vs veh, ACTR2 / RFU, PPP3R1 / Fold change vs veh, PPP3R1 / RFU, PIK3R1 / Fold change vs veh, PIK3R1 / RFU, HNRNPA1 / Fold change vs veh, HNRNPA1 / RFU, RNF170 / Fold change vs veh, RNF170 / RFU, ZNF28 / Fold change vs veh, ZNF28 / RFU, RNGTT / Fold change vs veh, RNGTT / RFU, OGT / Fold change vs veh, OGT / RFU, BRD1 / Fold change vs veh, BRD1 / RFU, MARS / Fold change vs veh, MARS / RFU, ZNF655 / Fold change vs veh, ZNF655 / RFU, FAHD1 / Fold change vs veh, FAHD1 / RFU, BDP1 / Fold change vs veh, BDP1 / RFU, LRRCC1 / Fold change vs veh, LRRCC1 / RFU, ARID1A / Fold change vs veh, ARID1A / RFU, ZNF146 / Fold change vs veh, ZNF146 / RFU, ZNF330 / Fold change vs veh, ZNF330 / RFU, GPN3 / Fold change vs veh, GPN3 / RFU, C9orf123 / Fold change vs veh, C9orf123 / RFU, N4BP2L2 / Fold change vs veh, N4BP2L2 / RFU, ARFIP1 / Fold change vs veh, ARFIP1 / RFU, FAM179B / Fold change vs veh, FAM179B / RFU, BCL10 / Fold change vs veh, BCL10 / RFU, UHRF1BP1L / Fold change vs veh, UHRF1BP1L / RFU, BET1 / Fold change vs veh, BET1 / RFU, CNOT2 / Fold change vs veh, CNOT2 / RFU, ZNF268 / Fold change vs veh, ZNF268 / Fold change vs veh, ZNF507 / RFU, DGCR2 / Fold change vs veh, DGCR2 / RFU, WDSUB1 / Fold change vs veh, WDSUB1 / Fold change vs veh, HSP90B1 /// MIR3652 / RFU, ADSS / Fold change vs veh, ADSS / RFU, GK / Fold change vs veh, GK / RFU, ZNF148 / Fold change vs veh, ZNF148 / RFU, TAF9 / Fold change vs veh, TAF9 / RFU, SLC1A5 / Fold change vs veh, SLC1A5 / RFU, SLMO2 / Fold change vs veh, SLMO2 / RFU, ABCC4 / Fold change vs veh, ABCC4 / RFU, LOC101060439 /// RAP1B / Fold change vs veh, LOC101060439 /// RAP1B / RFU, RFX7 / Fold change vs veh, RFX7 / RFU, GTPBP10 / Fold change vs veh, GTPBP10 / RFU, CNEP1R1 / Fold change vs veh, CNEP1R1 / RFU, BIVM-ERCC5 /// ERCC5 / Fold change vs veh, BIVM-ERCC5 /// ERCC5 / RFU, ILF3 / Fold change vs veh, ILF3 / RFU 11762660_at / Fold change /veh 11762660_at / RFU VCAN (11757783_s_at) / Fold change /veh VCAN (11757783_s_at) / RFU DDX43 (11728927_at) / Fold change /veh DDX43 (11728927_at) / RFU KRT8 (11758188_x_at) / Fold change /veh KRT8 (11758188_x_at) / RFU NKD1 (11759106_at) / Fold change /veh NKD1 (11759106_at) / RFU SRD5A1 (11742802_a_at) / Fold change /veh SRD5A1 (11742802_a_at) / RFU TPSAB1 /// TPSB2 (11721975_s_at) / Fold change /veh TPSAB1 /// TPSB2 (11721975_s_at) / RFU GSTM3 (11746129_a_at) / Fold change /veh GSTM3 (11746129_a_at) / RFU IL23R (11737362_x_at) / Fold change /veh IL23R (11737362_x_at) / RFU TMEM51 (11727254_a_at) / Fold change /veh TMEM51 (11727254_a_at) / RFU PIWIL2 (11732686_x_at) / Fold change /veh PIWIL2 (11732686_x_at) / RFU ORM1 (11744905_x_at) / Fold change /veh ORM1 (11744905_x_at) / RFU CCDC152 (11743942_at) / Fold change /veh CCDC152 (11743942_at) / RFU ECM1 (11717891_a_at) / Fold change /veh ECM1 (11717891_a_at) / RFU IL23R (11748794_a_at) / Fold change /veh IL23R (11748794_a_at) / RFU TNFAIP8L3 (11732012_x_at) / Fold change /veh TNFAIP8L3 (11732012_x_at) / RFU MBOAT4 (11741988_at) / Fold change /veh MBOAT4 (11741988_at) / RFU 11764193_at / Fold change /veh 11764193_at / RFU TMEM53 (11763286_at) / Fold change /veh TMEM53 (11763286_at) / RFU MAGEB2 (11727129_at) / Fold change /veh MAGEB2 (11727129_at) / RFU TMEM200A (11744735_a_at) / Fold change /veh TMEM200A (11744735_a_at) / RFU CCDC152 (11751479_a_at) / Fold change /veh CCDC152 (11751479_a_at) / RFU FAM211A (11726209_a_at) / Fold change /veh FAM211A (11726209_a_at) / RFU RGS16 (11746705_a_at) / Fold change /veh RGS16 (11746705_a_at) / RFU VCAN (11755009_s_at) / Fold change /veh VCAN (11755009_s_at) / RFU RHOB (11743442_s_at) / Fold change /veh RHOB (11743442_s_at) / RFU RGS16 (11720943_a_at) / Fold change /veh RGS16 (11720943_a_at) / RFU RGS16 (11720944_at) / Fold change /veh RGS16 (11720944_at) / RFU, VPS4B / Fold change vs veh, VPS4B / RFU, CREB1 / Fold change vs veh, CREB1 / RFU, DNAJC13 / Fold change vs veh, DNAJC13 / RFU, GNAQ / Fold change vs veh, GNAQ / RFU, CDK5R1 / Fold change vs veh, CDK5R1 / RFU, ZRANB3 / Fold change vs veh, ZRANB3 / RFU, CUL4A / Fold change vs veh, CUL4A / RFU, CCNY / Fold change vs veh, CCNY / RFU, UFL1 / Fold change vs veh, UFL1 / RFU, COG3 / Fold change vs veh, COG3 / RFU, DIAPH2 / Fold change vs veh, DIAPH2 / RFU, SKA2 / Fold change vs veh, SKA2 / RFU, AFF3 / Fold change vs veh, AFF3 / RFU, LMF1 / Fold change vs veh, LMF1 / RFU, IPO11 / Fold change vs veh, IPO11 / RFU, DFFB / Fold change vs veh, DFFB / RFU, FOXP1 / Fold change vs veh, FOXP1 / RFU, CARD8 / Fold change vs veh, CARD8 / RFU, STRN3 / Fold change vs veh, STRN3 / RFU, ADK / Fold change vs veh, ADK / RFU, RASSF2 / Fold change vs veh, RASSF2 / RFU, WIPF1 / Fold change vs veh, WIPF1 / RFU, LARP1B / Fold change vs veh, LARP1B / RFU, RASA1 / Fold change vs veh, RASA1 / RFU, RB1 / Fold change vs veh, RB1 / RFU, PPFIA1 / Fold change vs veh, PPFIA1 / RFU, MAT2A / Fold change vs veh, MAT2A / RFU, CCT5 / Fold change vs veh, CCT5 / RFU, WDR92 / Fold change vs veh, WDR92 / RFU, CUX1 / Fold change vs veh, CUX1 / RFU, TTC7A / Fold change vs veh, TTC7A / RFU, TMEM135 / Fold change vs veh, TMEM135 / RFU, DEPTOR / Fold change vs veh, DEPTOR / RFU, CPM / Fold change vs veh, CPM / RFU, DNAJB6 / Fold change vs veh, DNAJB6 / RFU, CACNA2D3 / Fold change vs veh, CACNA2D3 / RFU, DTX4 / Fold change vs veh, DTX4 / RFU, TFCP2 / Fold change vs veh, TFCP2 / RFU, GMCL1 /// GMCL1P1 / Fold change vs veh, GMCL1 /// GMCL1P1 / RFU, AEBP2 / Fold change vs veh, AEBP2 / RFU, SNHG1 /// SNORD22 /// SNORD25 /// SNORD26 /// SNORD27 /// SNORD28 /// SNORD29 /// SNORD31 / Fold change vs veh, SNHG1 /// SNORD22 /// SNORD25 /// SNORD26 /// SNORD27 /// SNORD28 /// SNORD29 /// SNORD31 / Fold change (Aza/veh), C12orf56 (ProbeSet 11735607_a_at) / Fold change (ACY-1035/veh), C12orf56 (ProbeSet 11735607_a_at) / Fold change (Aza/veh), FGFR1OP (ProbeSet 11751329_s_at) / Fold change (ACY-1035/veh), FGFR1OP (ProbeSet 11751329_s_at) / Fold change (Aza/veh), VPS36 (ProbeSet 11739960_a_at) / Fold change (ACY-1035/veh), VPS36 (ProbeSet 11739960_a_at) / RFU SYPL1 (11715823_x_at) / Fold change /veh SYPL1 (11715823_x_at) / RFU IGFBP7 (11715501_s_at) / Fold change /veh IGFBP7 (11715501_s_at) / RFU REEP3 (11722064_at) / Fold change /veh REEP3 (11722064_at) / RFU IGLL1 (11728026_x_at) / Fold change /veh IGLL1 (11728026_x_at): dose or concentration left out as unconfirmed", "conditions": "MV-4-11 cells, 48 hours", "data": [{"compound": "Nc1ncn([C@@H]2O[C@H](CO)[C@@H](O)[C@H]2O)c(=O)n1", "note": "[azacitidine]", "values": [{"measurement": "Fold change /veh PRF1 (11729649_at)", "result": 1.08}]}]}
